Assays:
[1] = system: patients with intrinsic anthracycline-resistant tumours; assay: Phase I toxicity (CTC grading), MMRDX as 3 h intravenous infusion once every 4 weeks
Description: Nowadays, anthracyclines play an important role in chemothera- peutic treatment of a wide variety of tumour types. The clinical use of anthracyclines is limited by their toxicity profile, especially irreversible, cumulative dose-related cardiotoxicity, and by intrinsic or acquired resistance of tumours cells. Mechanisms of this resistance consist of several pathways, such as overexpression of drug efflux pumps (i.e. P-glycoprotein), decrease in topoiso- merase II enzyme levels, and increase in cellular detoxifying capacity (Kaye and Merry, 1985; Deffie et al, 1989; de Jong et al, 1990; Ford and Hait, 1990; Roninson, 1997). Morpholinyl anthracyclines, such as methoxymorpholino doxorubicin (MMRDX or PNU-152243), were synthesized in search for new anthracyclines with at least partially novel modes of action, including activity on multidrug-resistant (MDR) tumours. MMRDX is a novel doxorubicin derivative in which the nitrogen atom of the daunosamine is enclosed in a methoxymor- pholino ring (Figure 1). […] The working mechanism of morpholinyl anthracyclines appears to be different from other anthracyclines. Morpholinyl anthracyclines inhibit ribosomal gene transcription as well as topoisomerase I-mediated DNA-cleavage (Wassermann et al, 1988, 1990). […] Metabolic conversion of MMRDX by human liver microsomes and NADPH potentiated the cytotoxicity in an ovarian carcinoma cell line (Lau et al, 1994). […] Therefore, we decided to perform a phase I study with MMRDX administered as a 3 h infusion every 4 weeks in order to try to increase the MTD as compared with bolus administration. In addition, we assessed pharmacokinetics of prolonged MMRDX-infusion. A prolonged methoxymorpholino doxorubicin (PNU- 152243 or MMRDX) infusion schedule in patients with solid tumours: a phase 1 and pharmacokinetic study E Fokkema1 , J Verweij2 , AT van Oosterom3 , DRA Uges1 , R Spinelli4 , O Valota4 , EGE de Vries1 and HJM Groen1 1 Department of Pulmonology, Department of Pharmacy, Department of Internal Medicine, University Hospital Groningen, PO Box 30.001, 9700 RB Groningen, The Netherlands; 2 Rotterdam Cancer Institute and University Hospital, Rotterdam, The Netherlands; 3 University Hospital Leuven, Belgium; 4 Pharmacia & Upjohn, Milan, Italy Summary The aim of this phase I study was to assess feasibility, pharmacokinetics and toxicity of methoxymorpholino doxorubicin (MMRDX or PNU-152243) administered as a 3 h intravenous infusion once every 4 weeks. […] The first cohort of patients was treated with 1 mg m-2 of MMRDX. The next cohorts received 1.25 mg m-2 and 1.5 mg m-2 respectively. […] (c) 2000 Cancer Research Campaign Keywords: methoxymorpholino doxorubicin; pharmacokinetics; phase I study 767 Received 6 January 1999 Revised 2 August 1999 Accepted 25 August 1999 Correspondence to: EGE de Vries British Journal of Cancer (2000) 82(4), 767-771 (c) 2000 Cancer Research Campaign DOI: 10.1054/ bjoc.1999.0996, available online at http://www.idealibrary.com on PATIENTS AND METHODS Patients The study was performed between December 1994 and June 1996. Patients with intrinsic anthracycline-resistant tumours were accrued in three different centres in Belgium and The Netherlands.

[2] = system: patients with various intrinsically anthracycline resistant solid tumours; conditions: 1998, cited from earlier work
rats = system: rats; design: method as in Danesi et al, 1993; conditions: ref Danesi et al, 1993; cited from earlier work

## COc1cccc2c1C(=O)c1c(O)c3c(c(O)c1C2=O)C[C@@](O)(C(=O)CO)C[C@@H]3O[C@H]1C[C@H](N2CCO[C@H](OC)C2)[C@H](O)[C@H](C)O1 [MMRDX, methoxymorpholino doxorubicin]
[1]; 1.25 mg m-2, 17 cycles
  Leucocytes, CTC grade III toxicity: 6 % of total number of cycles
  Leucocytes, CTC grade IV toxicity: 0 % of total number of cycles
  Neutrophils, CTC grade III toxicity: 0 % of total number of cycles
  Neutrophils, CTC grade IV toxicity: 0 % of total number of cycles
  Platelets, CTC grade III toxicity: 0 % of total number of cycles
  Platelets, CTC grade IV toxicity: 0 % of total number of cycles
[1]; 1.25 mg m-2, six patients treated
  Patients with grade III/IV haematological toxicity: one patient
[1]; 1.5 mg m-2
  Death with neutropenic fever / sepsis during febrile neutropenia: One patient
  Grade III/IV fatigue: one out of 11 cycles
  Grade III/IV infection: four out of 11 cycles
  Median (range) nadir of leucocytes over all evaluable cycles: 1.4 (0.2-7.5) x 109 l-1
  Median (range) nadir of neutrophils over all evaluable cycles: 0.5 (0.2-7.3) x 109 l-1
  Median (range) nadir of platelets over all evaluable cycles: 55 (8-119) x 109 1-1
  Nausea and vomiting exceeding grade II: two out of 11 cycles
  Patients with grade III/IV haematological toxicity: all five patients
  Transient elevations in total bilirubin reaching CTC grade II: 3/11
[1]; 1.5 mg m-2, 7 cycles
  Neutrophils, CTC grade III toxicity: 29 % of total number of cycles
  Neutrophils, CTC grade IV toxicity: 43 % of total number of cycles
[1]; 1.5 mg m-2, 9 cycles
  Platelets, CTC grade III toxicity: 22 % of total number of cycles
  Platelets, CTC grade IV toxicity: 11 % of total number of cycles
[1]; 1.5 mg m-2, 10 cycles
  Leucocytes, CTC grade III toxicity: 40 % of total number of cycles
  Leucocytes, CTC grade IV toxicity: 30 % of total number of cycles
[1]; 1.5 mg m-2, three out of five patients
  Cycles reduced from 1.5 mg m-2 to 1.25 mg m-2 because of haematological toxicity: Four out of 11 cycles
[1]; 3 h i.v. infusion
  Patients with neutropenic fever: Three patients
[1]; 3 h i.v. infusion every 4 weeks
  Maximum tolerated dose (MTD): 1.25 mg m-2
[1]; 3 h i.v. infusion, 1.25 mg m-2
  CTC grade III/IV nausea and vomiting: 1/18
  Transient elevation in transaminases up to CTC grade III: 2/16
[1]; 3 h i.v. infusion, 1.5 mg m-2
  CTC grade III neutropenia: 2/7
  CTC grade III/IV nausea and vomiting: 2/11
  CTC grade IV neutropenia: 3/7
  Thrombocytopenia grade III: 2/9
  Thrombocytopenia grade IV: 1/9
  Transient elevation in transaminases up to CTC grade III: 4/11
[1]; 3 h i.v. infusion, all dose levels
  Cardiotoxicity: No cardiotoxicity
[1]; after two to six cycles
  LVEF at the end of treatment in eight patients: No significant decreases
[1]; all dose levels
  Grade III/IV toxicity for haemoglobin: No grade III/IV toxicity
  Phlebitis at the infusion site, nephro- and neurotoxicity: No phlebitis at the infusion site and no nephro- or neurotoxicity
  Start of late nausea and vomiting: around 4 days after treatment
[1]; highest dose level, after three cycles, LVEF remained in the normal range
  Decrease in LVEF, one patient: 13%
[1]; main toxicity
  Time of late haematological toxicity: ~22 day
[1]; overall
  Cumulative haematological toxicity for subsequent cycles: no cumulative haematological toxicity for subsequent cycles, except for platelets at the highest dose level
[2]; 1.5 mg m-2 bolus every 4 weeks, ref Bakker et al
  Grade IV neutropenia: 9 % of administered cycles
[2]; NSCLC, ref Bakker et al
  Tumour responses: one partial response in one out of 17 NSCLC
[2]; bolus, ref Bakker et al
  Plasma clearance: 620 ml min-1 m-2
  t1/2 of the elimination phase: 49 h
[2]; phase II study, ref Vasey et al, 1995, Bakker et al
  Patients taken off study due to a decrease in LVEF: two patients
rats
  Cardiotoxicity in rats: no substantial cardiotoxicity
